Experimental data reported in patent publication US4692443A, “3-bicyclicpyridinium-methyl cephalosporins” (Eli Lilly and Company, priority 1984, dated 1987).
≈ marks a conversion by molar mass, not a printed value. Where two headings read alike, the source gives them in different places.

Columns and labels:
Assay type in all cases: cell-based
Strep. D 9960 = assay: standard in vitro agar dilution assay (MIC); settings: Strep. D strain 9960
H. influ. C.L. = assay: standard in vitro agar dilution assay (MIC); settings: H. influ. strain C.L.; read-out: Agar Dilution MIC
Staph. aureus X1.1 = assay: standard in vitro agar dilution assay (MIC); settings: Staphylococcus aureus; Staph. aureus strain X1.1; read-out: Agar Dilution MIC
Strep. PN PARK = assay: standard in vitro agar dilution assay (MIC); settings: Strep. PN strain PARK
Klebsiella KAE = assay: standard in vitro agar dilution assay (MIC); settings: read-out: Agar Dilution MIC
Strep. D X66 = assay: standard in vitro agar dilution assay (MIC); settings: Strep. D strain X66
Klebsiella X68 = assay: standard in vitro agar dilution assay (MIC); settings: Klebsiella strain X68; read-out: Agar Dilution MIC
Pseudomonas X239 = assay: standard in vitro agar dilution assay (MIC); settings: Pseudomonas strain X239
Staph. aureus X400 = assay: standard in vitro agar dilution assay (MIC); settings: Staphylococcus aureus; Staph. aureus strain X400
H. influ. 76 = assay: standard in vitro agar dilution assay (MIC); settings: H. influ. strain 76; read-out: Agar Dilution MIC
[1] = test system: Enterobacter aerogenes C32; assay: standard in vitro agar dilution assay (MIC); settings: Klebsiella aerogenes
Staph. aureus V41 = assay: standard in vitro agar dilution assay (MIC); settings: Staphylococcus aureus
E. coli EC14 = assay: standard in vitro agar dilution assay (MIC); settings: Escherichia coli; E. coli strain EC14; read-out: Agar Dilution MIC
Klebsiella X26 = assay: standard in vitro agar dilution assay (MIC); settings: Klebsiella strain X26; read-out: Agar Dilution MIC
Staph. epi EPI1 = assay: standard in vitro agar dilution assay (MIC); settings: Staph. epi strain EPI1
Strep. A C203 = assay: standard in vitro agar dilution assay (MIC); settings: Strep. A strain C203
Staph. epi 222 = assay: standard in vitro agar dilution assay (MIC); settings: Staph. epi strain 222
E. coli N10 = assay: standard in vitro agar dilution assay (MIC); settings: Escherichia coli
Staph. aureus S13E = assay: microbe, parasite or virus in culture; settings: Staphylococcus aureus, read-out: Agar Dilution MIC
Pseudomonas X528 = assay: standard in vitro agar dilution assay (MIC); settings: Pseudomonas strain X528
Description: The antibacterial activity of several representative compounds of the invention has been evaluated in standard in vitro agar dilution assays. The following Table presents typical minimum inhibitory concentrations (MIC's) in μg /ml for exemplary compounds when evaluated against typical Gram + and Gram - microorganism.

E. coli TEM = assay: standard in vitro agar dilution assay (MIC); settings: Escherichia coli; E. coli strain TEM; read-out: Agar Dilution MIC
Salmonella X514 = assay: standard in vitro agar dilution assay (MIC); settings: Salmonella strain X514; read-out: Agar Dilution MIC
Serratia X99 = assay: standard in vitro agar dilution assay (MIC); settings: Serratia strain X99; read-out: Agar Dilution MIC
[2] = Enterobacter aerogenes strain C32, read-out: Agar Dilution MIC
[3] = Staph. aureus strain V41, read-out: Agar Dilution MIC
[4] = E. coli strain N10, read-out: Agar Dilution MIC

Row | SMILES | MIC (Strep. D 9960) [µg/mL] | MIC (Staph. aureus X1.1) [µg/mL] | MIC (Strep. PN PARK) [µg/mL] | MIC (Klebsiella KAE; Klebsiella strain KAE) [µg/mL] | MIC (Strep. D X66) [µg/mL] | MIC (Klebsiella X68) [µg/mL] | MIC (Pseudomonas X239) [µg/mL] | MIC (Staph. aureus X400) [µg/mL] | MIC (H. influ. 76) [µg/mL] | MIC [1, 2] [µg/mL] | MIC (Staph. aureus V41; [3]) [µg/mL] | MIC (E. coli EC14) [µg/mL] | MIC (Klebsiella X26) [µg/mL] | MIC (Staph. epi EPI1) [µg/mL] | MIC (Strep. A C203) [µg/mL] | MIC (Staph. epi 222) [µg/mL] | MIC (E. coli N10; [4]) [µg/mL] | MIC (Staph. aureus S13E) [µg/mL] | MIC (Pseudomonas X528) [µg/mL] | MIC (E. coli TEM) [µg/mL] | further results
1 | CO/N=C(\C(=O)NC1C(=O)N2C(C(=O)[O-])=C(C[n+]3ccc4sc(C)nc4c3)CSC12)c1csc(N)n1 (stereo not shown) [Example 13] | 8 (≈ 14.7 µM) | 1 (≈ 1.83 µM) | < 0.008 | 2 (≈ 3.67 µM) | > 128 | 0.03 (≈ 0.055 µM) | 8 (≈ 14.7 µM) | 32 (≈ 58.6 µM) | 0.03 (≈ 0.055 µM) | 0.03 (≈ 0.055 µM) | 8 (≈ 14.7 µM) | 0.015 (≈ 0.0275 µM) | 0.015 (≈ 0.0275 µM) | 2 (≈ 3.67 µM) | 0.015 (≈ 0.0275 µM) | 1 (≈ 1.83 µM) | 0.03 (≈ 0.055 µM) | 8 (≈ 14.7 µM) | 2 (≈ 3.67 µM) | 0.015 (≈ 0.0275 µM) | MIC (H. influ. C.L.): 0.03 µg/mL (≈ 0.055 µM)
2 | CO/N=C(\C(=O)NC1C(=O)N2C(C(=O)[O-])=C(C[n+]3ccc4[nH]cnc4c3)CSC12)c1csc(N)n1 (stereo not drawn) [Example 2, syn-7-[2-(2-Aminotiazol-4-yl)-2-methoxyiminoacetamido]-3-(1H-imidazolo[4,5-c]pyridinium-5-ylmethyl)-3-cephem-4-carboxylate] | 2 (≈ 3.89 µM) | 1 (≈ 1.94 µM) | < 0.008 | 4 (≈ 7.77 µM) | – | < 0.008 | 2 (≈ 3.89 µM) | 64 (≈ 124 µM) | 0.015 (≈ 0.0292 µM) | 0.03 (≈ 0.0583 µM) | 8 (≈ 15.5 µM) | < 0.008 | < 0.008 | 4 (≈ 7.77 µM) | < 0.008 | 1 (≈ 1.94 µM) | 0.015 (≈ 0.0292 µM) | 8 (≈ 15.5 µM) | 1 (≈ 1.94 µM) | < 0.008 | MIC (H. influ. C.L.): 0.015 µg/mL (≈ 0.0292 µM); MIC (Salmonella X514): < 0.008 µg/mL; MIC (Serratia X99): 0.015 µg/mL (≈ 0.0292 µM)
3 | CCc1nc2c[n+](CC3=C(C(=O)[O-])N4C(=O)C(NC(=O)/C(=N\OC)c5csc(N)n5)C4SC3)ccc2s1 (stereo not drawn) [Example 14, syn-7-[2-(2-aminothiazol-4-yl)-2-methoxyiminoacetamido]-3-(2-ethylthiazolo[4,5-c]pyridinium-5-ylmethyl)-3-cephem-4-carboxylate] | 4 (≈ 7.15 µM) | 1 (≈ 1.79 µM) | < 0.008 | 2 (≈ 3.57 µM) | > 128 | 0.03 (≈ 0.0536 µM) | 4 (≈ 7.15 µM) | 32 (≈ 57.2 µM) | 0.015 (≈ 0.0268 µM) | – | 4 (≈ 7.15 µM) | 0.015 (≈ 0.0268 µM) | < 0.008 | 2 (≈ 3.57 µM) | < 0.008 | 1 (≈ 1.79 µM) | 0.03 (≈ 0.0536 µM) | 4 (≈ 7.15 µM) | 4 (≈ 7.15 µM) | 0.015 (≈ 0.0268 µM) | –
4 | CO/N=C(\C(=O)NC1C(=O)N2C(C(=O)[O-])=C(C[n+]3ccc4scnc4c3)CSC12)c1csc(N)n1 (stereo not drawn) [Example 12, syn-7-[2-(2-aminothiazol-4-yl)-2-methoxyiminoacetamido]-3-(thiazolo[4,5-c]pyridinium-5-ylmethyl)-3-cephem-4-carboxylate] | 4 (≈ 7.52 µM) | 1 (≈ 1.88 µM) | 0.015 (≈ 0.0282 µM) | 4 (≈ 7.52 µM) | 128 (≈ 241 µM) | 0.03 (≈ 0.0564 µM) | 2 (≈ 3.76 µM) | 2 (≈ 3.76 µM) | – | 0.03 (≈ 0.0564 µM) | 2 (≈ 3.76 µM) | 0.015 (≈ 0.0282 µM) | 0.015 (≈ 0.0282 µM) | 2 (≈ 3.76 µM) | 0.015 (≈ 0.0282 µM) | – | 0.03 (≈ 0.0564 µM) | 8 (≈ 15 µM) | 1 (≈ 1.88 µM) | – | MIC (Salmonella X514): 0.03 µg/mL (≈ 0.0564 µM)
5 | CO/N=C(\C(=O)NC1C(=O)N2C(C(=O)[O-])=C(C[n+]3ccc4c(c3)nc(C)n4C)CSC12)c1csc(N)n1 (stereo not drawn) [Example 6, syn-7-[2-(2-aminothiazol-4-yl)-2-methoxyiminoacetamido]-3-(1,2-dimethyl-1H-imidazolo[4,5-c]pyridinium-5-ylmethyl)-3-cephem-4-carboxylate] | 4 (≈ 7.37 µM) | 2 (≈ 3.69 µM) | < 0.008 | 2 (≈ 3.69 µM) | > 128 | 0.03 (≈ 0.0553 µM) | 4 (≈ 7.37 µM) | 32 (≈ 59 µM) | – | 0.03 (≈ 0.0553 µM) | 16 (≈ 29.5 µM) | < 0.008 | < 0.008 | 2 (≈ 3.69 µM) | < 0.008 | 1 (≈ 1.84 µM) | 0.03 (≈ 0.0553 µM) | 8 (≈ 14.7 µM) | 4 (≈ 7.37 µM) | < 0.008 | MIC (Salmonella X514): 0.03 µg/mL (≈ 0.0553 µM)
6 | CC(C)(O/N=C(\C(=O)N[C@@H]1C(=O)N2C(C(=O)[O-])=C(C[n+]3ccccc3)CS[C@H]12)c1csc(N)n1)C(=O)O [Ceftazidime, ceftazidime, reference compound] | 16 (≈ 29.3 µM) | 8 (≈ 14.6 µM) | – | – | > 128 | – | 2 (≈ 3.66 µM) | 128 (≈ 234 µM) | – | – | – | – | – | 16 (≈ 29.3 µM) | – | 16 (≈ 29.3 µM) | – | 32 (≈ 58.5 µM) | 2 (≈ 3.66 µM) | – | MIC (Klebsiella KAE; Klebsiella): 0.5 µg/mL (≈ 0.915 µM); MIC ([1]; C32, read-out: Agar Dilution MIC): 0.25 µg/mL (≈ 0.457 µM); MIC (Staph. aureus V41; V41, read-out: Agar Dilution MIC): 32 µg/mL (≈ 58.5 µM); MIC (E. coli N10; N10, read-out: Agar Dilution MIC): 0.25 µg/mL (≈ 0.457 µM)
7 | CO/N=C(\C(=O)NC1C(=O)N2C(C(=O)[O-])=C(C[n+]3ccc4nc(C)n(C)c4c3)CSC12)c1csc(N)n1 (stereo not drawn) [Example 7, syn-7-[2-(2-aminothiazol-4-yl)-2-methoxyiminoacetamido]-3-(2,3-dimethyl-3H-imidazolo[4,5-c]pyridinium-5-ylmethyl)-3-cephem-4-carboxylate] | 4 (≈ 7.37 µM) | 2 (≈ 3.69 µM) | – | 2 (≈ 3.69 µM) | > 128 | 0.03 (≈ 0.0553 µM) | – | 128 (≈ 236 µM) | 0.03 (≈ 0.0553 µM) | – | – | 0.015 (≈ 0.0276 µM) | 0.015 (≈ 0.0276 µM) | 4 (≈ 7.37 µM) | 0.015 (≈ 0.0276 µM) | 2 (≈ 3.69 µM) | 0.03 (≈ 0.0553 µM) | – | – | 0.015 (≈ 0.0276 µM) | –
8 | CO/N=C(\C(=O)NC1C(=O)N2C(C(=O)[O-])=C(C[n+]3ccc4ncn(C)c4c3)CSC12)c1csc(N)n1 (stereo not drawn) [Example 3, syn-7-[2-(2-Aminothiazol-4-yl)-2-methoxyiminoacetamido]-3-(3-methyl-3H-imidazolo[4,5-c]pyridinium-5-ylmethyl)-3-cephem-4-carboxylate] | 4 (≈ 7.57 µM) | 1 (≈ 1.89 µM) | < 0.008 | 4 (≈ 7.57 µM) | > 128 | 0.03 (≈ 0.0568 µM) | 2 (≈ 3.78 µM) | 64 (≈ 121 µM) | – | – | 4 (≈ 7.57 µM) | < 0.008 | < 0.008 | 2 (≈ 3.78 µM) | < 0.008 | 1 (≈ 1.89 µM) | – | 4 (≈ 7.57 µM) | 1 (≈ 1.89 µM) | < 0.008 | MIC (Salmonella X514): < 0.008 µg/mL
